Data reported in ChEMBL document CHEMBL5352447, “Development of [1,2]oxazoloisoindoles tubulin polymerization inhibitors: Further chemical modifications and potential therapeutic effects against lymphomas” (Eur J Med Chem, 2022).

Tests used:
U-251 = test: Antiproliferative activity against human U-251 cells assessed as cell growth inhibition incubated for 72 hrs by MTT assay; format: functional
HOP-92 = test: Antiproliferative activity against human HOP-92 cells assessed as cell growth inhibition incubated for 72 hrs by MTT assay; format: functional
T47D = test: Antiproliferative activity against human T47D cells assessed as cell growth inhibition incubated for 72 hrs by MTT assay; format: functional
DU-145 = test: Antiproliferative activity against human DU-145 cells assessed as cell growth inhibition incubated for 72 hrs by MTT assay; format: functional
SNB-75 = test: Antiproliferative activity against human SNB-75 cells assessed as cell growth inhibition incubated for 72 hrs by MTT assay; format: functional
K562 = test: Antiproliferative activity against human K562 cells assessed as cell growth inhibition incubated for 72 hrs by MTT assay; format: functional
SR = test: Antiproliferative activity against human SR cells assessed as cell growth inhibition incubated for 72 hrs by MTT assay; format: functional
SN12C = test: Antiproliferative activity against human SN12C cells assessed as cell growth inhibition incubated for 72 hrs by MTT assay; format: functional
VL51 = test: Antiproliferative activity against human VL51 cells assessed as inhibition of cell proliferation incubated for 72 hrs by MTT assay; format: functional, cell-based; details: VL51, 72 h
MDA-MB-435 = test: Antiproliferative activity against human MDA-MB-435 cells assessed as cell growth inhibition incubated for 72 hrs by MTT assay; format: functional
BT-549 = test: Antiproliferative activity against human BT-549 cells assessed as cell growth inhibition incubated for 72 hrs by MTT assay; format: functional
UACC-257 = test: Antiproliferative activity against human UACC-257 cells assessed as cell growth inhibition incubated for 72 hrs by MTT assay; format: functional
MCF7 [1] = test: Cytotoxicity against human MCF7 cells assessed as cell growth inhibition; format: functional, cell-based
Tubulin = test: Inhibition of tubulin assembly (unknown origin); format: protein-complex assay, Homo sapiens
A549 = test: Antiproliferative activity against human A549 cells assessed as cell growth inhibition incubated for 72 hrs by MTT assay; format: functional
Tubulin (Homo sapiens) = Tubulin (Homo sapiens) (UniProt P68371+Q9H4B7+P0DPH7+P68366+Q13509+Q71U36+P04350+Q3ZCM7+P07437+P68363+Q9BQE3+Q6PEY2+Q13885+Q9BVA1+Q9BUF5); test: Inhibition of [3H]Colchicine binding to tubulin (unknown origin) at 5 uM relative to control; format: protein-complex assay
COLO 205 = test: Antiproliferative activity against human COLO 205 cells assessed as cell growth inhibition incubated for 72 hrs by MTT assay; format: functional
CAKI-1 = test: Antiproliferative activity against human CAKI-1 cells assessed as cell growth inhibition incubated for 72 hrs by MTT assay; format: functional
KM12 = test: Antiproliferative activity against human KM12 cells assessed as cell growth inhibition incubated for 72 hrs by MTT assay; format: functional
TK-10 = test: Antiproliferative activity against human TK-10 cells assessed as cell growth inhibition incubated for 72 hrs by MTT assay; format: functional
MCF7 [2] = test: Antiproliferative activity against human MCF7 cells assessed as cell growth inhibition incubated for 72 hrs by MTT assay; format: functional
M14 = test: Antiproliferative activity against human M14 cells assessed as cell growth inhibition incubated for 72 hrs by MTT assay; format: functional
NCI-H322M = test: Antiproliferative activity against human NCI-H322M cells assessed as cell growth inhibition incubated for 72 hrs by MTT assay; format: functional
OVCAR-3 = test: Antiproliferative activity against human OVCAR-3 cells assessed as cell growth inhibition incubated for 72 hrs by MTT assay; format: functional

SMILES | GI50 (U-251) | GI50 (HOP-92) | GI50 (T47D) | GI50 (DU-145) | GI50 (SNB-75) | GI50 (K562) | GI50 (SR) | GI50 (SN12C) | IC50 (VL51) | GI50 (MDA-MB-435) | GI50 (BT-549) | GI50 (UACC-257) | IC50 (MCF7 [1]) | GI50 (A549) | GI50 (COLO 205) | GI50 (KM12) | GI50 (TK-10) | GI50 (MCF7 [2]) | GI50 (M14) | GI50 (NCI-H322M) | other results
COc1ccc(Cn2cc3c(c2-c2cc(OC)c(OC)c(OC)c2)CCc2c(CN4CCOCC4)noc2-3)cc1 | 880 nM | 900 nM | > 100000 nM | 1990 nM | 310 nM | 430 nM | 380 nM | 3810 nM | 200 nM | 250 nM | 1340 nM | 1000 nM | 470 nM | 1130 nM | 590 nM | 400 nM | > 100000 nM | 360 nM | 560 nM | – | IC50 (Tubulin): 1000 nM; inhibition (Tubulin (Homo sapiens)): 33%; GI50 (CAKI-1): 380 nM
CCOC(=O)c1noc2c1CCc1c-2cn(Cc2ccc(OC)cc2)c1-c1cc(OC)c(OC)c(OC)c1 | 540 nM | 2720 nM | > 100000 nM | 2320 nM | 3650 nM | – | 2090 nM | 3920 nM | 1800 nM | 570 nM | 1470 nM | 85800 nM | – | 3800 nM | 1770 nM | 910 nM | > 100000 nM | 350 nM | 410 nM | 5460 nM | GI50 (OVCAR-3): 370 nM
COc1ccc(Cn2cc3c(c2-c2cc(OC)c(OC)c(OC)c2)CCc2c(CO)noc2-3)cc1 | 330 nM | 3390 nM | – | 390 nM | 180 nM | – | 210 nM | 720 nM | 1600 nM | 30 nM | 490 nM | 14700 nM | – | 420 nM | 300 nM | 270 nM | 17700 nM | 90 nM | 150 nM | 640 nM | GI50 (OVCAR-3): 220 nM
COc1ccc(Cn2cc3c(c2-c2cc(OC)c(OC)c(OC)c2)CCc2c(CN4CCCC4)noc2-3)cc1 | 540 nM | 1350 nM | 2650 nM | 4000 nM | 670 nM | 350 nM | 360 nM | 4430 nM | 150 nM | 240 nM | 2470 nM | 17000 nM | 1100 nM | 1330 nM | 940 nM | 12600 nM | 23400 nM | 330 nM | 580 nM | 5550 nM | IC50 (Tubulin): 2800 nM; inhibition (Tubulin (Homo sapiens)): 24%; GI50 (CAKI-1): 450 nM
